Patent publication US12653892B2, “Composition and method for new therapeutic agents including guanidinium-presenting dendrimers and branched structures” (priority 2020, dated 2026)
Converted amounts (≈) assume the structure as drawn. Read-outs that look alike come from different tables or passages of the source.

What was measured:
[1] = tested on: E. coli ATCC 25922; conditions: cited from earlier work
[2] = tested on: S. aureus ATCC 29213; assay: MIC by broth microdilution, S. aureus ATCC 29213; assay type: cell-based; conditions: S. aureus (ATCC 29213); for MIC, Antibiotic +NH2-triguan-6C / MIC, Antibiotic +NO2-triamine-2C / MIC, Antibiotic +NO2-triamine-6C: non-covalent mixture; for MIC: Staphylococcus aureus, ATCC29213, 20 h, read-out: MIC, Antibiotic Alone
Procedure: (§1) Methods—Determination of MICs: MICs for S. aureus, E. faecium, E. coli, P aeruginosa, A. baumannii, K. pneumoniae were determined using broth microdilution in accordance with CLSI methods (Wiegand, I.; Hilpert, K.; Hancock, R. E. W. Agar and Broth Dilution Methods to Determine the Minimal Inhibitory Concentration (MIC) of Antimicrobial Substances. Nat. Protoc. 2008, 3, 163-175). One day prior to each MIC experiment, bacterial strains were streaked for single colonies on TSA plates from frozen glycerol stocks stored at −80° C. Three to five colonies from each plate were harvested with a disposable inoculating loop and resuspended in 500 μL of PBS to create a bacterial suspension. Alternatively, a single colony of the appropriate bacterial strain was added to 4 mL TSB for overnight growth at 37° C. with 200 rpm shaking to create a stationary phase bacterial suspension. The suspension was diluted in PBS to an OD600 of 0.1 (˜[…] CFU/ml), and the OD 0.1 suspension was diluted 1:100 in Mueller Hinton broth (MHB, Difco 257530) just prior to inoculating the 96-well polypropylene treatment plate (Costar 3879). A 50 μL portion of inoculum was added to a treatment plate containing 2-fold serial dilutions of compound in MHB (50 μL of treatment/well) to lend a final total volume of 100 μL/well and a final inoculum density of ˜5×10^5 CFU/ml. The completed assay plate was sealed with Parafilm, placed in a lidded plastic tray lined with moistened paper towels, and incubated at 37° C. for approximately 20 hours. The MIC was read as the lowest treatment concentration where no bacterial growth occurred, as determined by OD600 measurements on a microplate reader. If a different plate or media type was used for a particular test, this is noted below the respective table.

[3] = tested on: E. coli ATCC 25922; assay: MIC by broth microdilution, E. coli ATCC 25922; assay type: cell-based; conditions: E. coli (ATCC 25922); for MIC, Antibiotic +NH2-triguan-6C / MIC, Antibiotic +NO2-triamine-2C / MIC, Antibiotic +NO2-triamine-6C: non-covalent mixture
Procedure: as §1

[4] = tested on: S. aureus ATCC 29213; conditions: cited from earlier work
[5] = Mueller Hinton Broth, polypropylene plate
[6] = cation-adjusted MHB2 supplemented
[7] = cation-adjusted MHB2 supplemented with 50 g/L Ca2+

Row | Compound | Literature MIC [1] [µM] | MIC, Antibiotic +NH2-triguan-6C [2, 5] [µM] | MIC, Antibiotic +NO2-triamine-2C [2, 5] [µM] | MIC, Antibiotic +NO2-triamine-6C [2, 5] [µM] | MIC [2, 5] [µM] | MIC, Antibiotic Alone [3] [µM] | MIC, Antibiotic +NH2-triguan-6C [3] [µM] | MIC, Antibiotic +NO2-triamine-2C [3] [µM] | MIC, Antibiotic +NO2-triamine-6C [3] [µM] | Literature MIC [4] [µM] | MIC, Antibiotic +NH2-triguan-6C [2, 6] [µM] | MIC, Antibiotic +NO2-triamine-2C [2, 7] [µM] | MIC, Antibiotic +NO2-triamine-6C [2, 7] [µM] | MIC [2, 6] [µM]
1 | CC1(C)S[C@@H]2[C@H](NC(=O)[C@H](N)c3ccccc3)C(=O)N2[C@H]1C(=O)O [Ampicillin] | 5 to 22 | 4 (≈ 1.4 µg/mL) | 4 (≈ 1.4 µg/mL) | 4 (≈ 1.4 µg/mL) | 2 (≈ 0.699 µg/mL) | 16 (≈ 5.59 µg/mL) | 16 (≈ 5.59 µg/mL) | 16 (≈ 5.59 µg/mL) | 16 (≈ 5.59 µg/mL) | 1.4 |  |  |  | 
2 | CC[C@H]1OC(=O)[C@H](C)[C@@H](O[C@H]2C[C@@](C)(OC)[C@@H](O)[C@H](C)O2)[C@H](C)[C@@H](O[C@@H]2O[C@H](C)C[C@H](N(C)C)[C@H]2O)[C@](C)(O)C[C@@H](C)CN(C)[C@H](C)[C@@H](O)[C@]1(C)O [Azithromycin] |  | 2 (≈ 1.5 µg/mL) | 2 (≈ 1.5 µg/mL) | 2 (≈ 1.5 µg/mL) | 2 (≈ 1.5 µg/mL) |  |  |  |  | 0.64 to 2.5 |  |  |  | 
3 | O=C(N[C@H](CO)[C@H](O)c1ccc([N+](=O)[O-])cc1)C(Cl)Cl [Chloramphenicol] | 6 to 25 | 32 (≈ 10.3 µg/mL) | 32 (≈ 10.3 µg/mL) | 32 (≈ 10.3 µg/mL) | 32 (≈ 10.3 µg/mL) | 16 (≈ 5.17 µg/mL) | 16 (≈ 5.17 µg/mL) | 16 (≈ 5.17 µg/mL) | 16 (≈ 5.17 µg/mL) | 6 to 50 |  |  |  | 
4 | O=C(O)c1cn(C2CC2)c2cc(N3CCNCC3)c(F)cc2c1=O [Ciprofloxacin] |  |  |  |  |  |  |  |  |  | 0.4 to 1.5 |  |  |  | 
5 | CCCCCCCCCC(=O)N[C@@H](Cc1c[nH]c2ccccc12)C(=O)N[C@H](CC(N)=O)C(=O)N[C@@H](CC(=O)O)C(=O)N[C@@H]1C(=O)NCC(=O)N[C@@H](CCCN)C(=O)N[C@@H](CC(=O)O)C(=O)N[C@H](C)C(=O)N[C@@H](CC(=O)O)C(=O)NCC(=O)N[C@H](CO)C(=O)N[C@@H]([C@H](C)CC(=O)O)C(=O)N[C@@H](CC(=O)c2ccccc2N)C(=O)O[C@@H]1C [Daptomycin] |  |  |  |  |  |  |  |  |  | 0.077 to 0.62 | 0.5 (≈ 0.81 µg/mL) | 0.5 (≈ 0.81 µg/mL) | 0.5 (≈ 0.81 µg/mL) | 0.5 (≈ 0.81 µg/mL)
6 | C[C@@H](O)[C@H]1C(=O)N2C(C(=O)O)=C(S[C@@H]3CN[C@H](C(=O)N(C)C)C3)[C@H](C)[C@H]12 [Meropenem] |  | 0.125 (≈ 0.0479 µg/mL) | 0.125 (≈ 0.0479 µg/mL) | 0.125 (≈ 0.0479 µg/mL) | 0.125 (≈ 0.0479 µg/mL) |  |  |  |  | 0.08 to 0.65 |  |  |  | 
